Data taken from patent US9504252B2, “Microbiocides and uses thereof” (Buckman Laboratories International, Inc., priority 2014, dated 2016).
Entries after “also recorded” stand apart in the source; their conditions may differ.

Experiments:
[1] = test system: sulfate reducing bacteria (SRB); assay: kill study, API broth serial dilution (SRB); format: cell-based; conditions: for API SERIES: SRB count, seven days, 30° C.
Experimental: (§1) A one gallon sample of cone water from a contaminated drilling fluid (run through a hydrocyclone) in the DJ (Denver-Julesburg Basin) formation was employed for these studies. The cone water pH was measured at 6.4 and the redox potential was at 34.6. The sample included anaerobic sulfate reducing, aerobic and anaerobic acid producing bacteria and general heterotrophic bacteria. Both organism types were present in this sample with the SRB+H2S at levels in excess of 10^12 bacteria per milliliter in the original sample.
(§2) In order to ensure that the active range was captured, the contaminated water was diluted with Butterfield phosphate buffer solution to a concentration of 0.1% of its original concentration. Serial dilutions were made using 1 cc sterile syringes to inoculate 9.0 mL anaerobic American Petroleum Institute (API) broth with an iron nail designed for sulfate reducing bacteria (SRB). In addition, Acid Producing B acteria (APB) and General Heterotrophic Bacteria (GHB) were tested using serial dilutions in 9 mL phenol red (PR) broth. The media salinity was matched to the substrate salinity of ≈0.5% that was measured by percent Total Dissolved Solids (TDS). Additionally, an untreated control was included. In all cases the concentration was determined on a weight/weight basis of parts per million (milligrams per kilogram). Each aliquot was continuously mixed (in a thermally controlled incubator) well after the addition of the biocide and maintained at 30° C. for the duration of study.
(§3) Untreated and treated aliquots were inspected after seven days checking to see if the bottles the API bottles turned black (indicating positive SRB growth) and to see if the PRD bottles turned yellow (indicating the presence of APB) and/or turbidity (indicating the presence of GHB). A color change at the highest dilution indicated the log quantity of organisms present.

[2] = test system: Acid Producing Bacteria (APB) and General Heterotrophic Bacteria (GHB); assay: kill study, phenol red broth serial dilution (APB/GHB); format: cell-based; conditions: for PRD SERIES: APB and GHB count, seven days, 30° C.
Experimental: as §1, §2, §3

SMILES: CNC(=S)[S-].[Na+] [SNMDTC, sodium-N-methyldithiocarbamate]
- decrease in SRB concentration ([1]; 1,000 ppm): did not appear to be any noticeable decrease
- API SERIES ([1]; 1,000 ppm total biocide): >10^4
- API SERIES ([1]; 10,000 ppm total biocide): >10^2
- decrease in bacterial concentration of SRB ([1]; 10,000 ppm, over a period of eight days): two
- decrease in APB/GHB concentration ([2]; 1,000 ppm): did not appear to be any noticeable decrease; also recorded: did not have any noticeable effect
- PRD SERIES ([2]; 1,000 ppm total biocide): ≧10^3
- PRD SERIES ([2]; 10,000 ppm total biocide): >10^2
